Reference: ChEMBL document CHEMBL1201862, “PubChem BioAssay data set” (2004)
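In this assay, cells in 96-well plates receive the compound at five concentrations for 48 hours. Endpoints are linearly interpolated between the surrounding concentrations. Here, GI50 denotes the concentration required for 50% inhibition of growth.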 Calls of active or inactive are those of the source. Cut-off read from the data, not from the text of the source: active = GI50 up to about 1.1 µM and inactive = higher.

Tests used:
Test in all cases: inhibition of tumour cell growth, NCI panel, 48 h
HT-29 = system: HT-29
CCRF-CEM = system: CCRF-CEM
SF-295 = system: SF-295
SK-OV-3 = system: SK-OV-3
CAKI-1 = system: CAKI-1
M14 = system: M14
LOX IMVI = system: LOX IMVI
HCC 2998 = system: HCC 2998
ACHN = system: ACHN
UO-31 = system: UO-31
MCF7 = system: MCF7
HOP-92 = system: HOP-92
PC-3 = system: PC-3
OVCAR-5 = system: OVCAR-5
RPMI-8226 = system: RPMI-8226
T47D = system: T47D
SK-MEL-2 = system: SK-MEL-2
NCI-H460 = system: NCI-H460
SK-MEL-5 = system: SK-MEL-5

Measured: GI50

COC(=O)C(CCCCN)NC(=O)C(CCCCN)NC(=O)C(CCCCN)NC(C)=O.Cc1ccc(C(=O)Nc2ccc(S(=O)(=O)O)c3cc(S(=O)(=O)O)cc(S(=O)(=O)O)c23)cc1NC(=O)c1cccc(NC(=O)Nc2cccc(C(=O)Nc3cc(C(=O)Nc4ccc(S(=O)(=O)O)c5cc(S(=O)(=O)O)cc(S(=O)(=O)O)c45)ccc3C)c2)c1
inactive: HT-29 > 50 µM | CCRF-CEM > 50 µM | SF-295 > 50 µM | SK-OV-3 > 50 µM | CAKI-1 > 50 µM | M14 > 50 µM | LOX IMVI > 50 µM | HCC 2998 > 50 µM | ACHN > 50 µM | UO-31 > 50 µM | MCF7 > 50 µM | HOP-92 > 50 µM | PC-3 > 50 µM | OVCAR-5 > 50 µM | RPMI-8226 > 50 µM | T47D > 50 µM | SK-MEL-2 > 50 µM | NCI-H460 48.9 µM | SK-MEL-5 > 50 µM

CC1(C2(C)OC(=O)c3ccccc32)OC(=O)c2ccccc21 (stereo not given)
inactive: HT-29 > 100 µM | SF-295 > 100 µM | SK-OV-3 > 100 µM | CAKI-1 > 100 µM | M14 > 100 µM | LOX IMVI > 100 µM | HCC 2998 > 100 µM | ACHN > 100 µM | UO-31 > 100 µM | MCF7 > 100 µM | HOP-92 > 100 µM | PC-3 > 100 µM | RPMI-8226 > 100 µM | T47D > 100 µM | SK-MEL-2 > 100 µM | NCI-H460 > 100 µM | SK-MEL-5 > 100 µM

N/C(=N\N/C=C1\C=Nc2cc(C(F)(F)F)ccc2C1=O)NO
inactive: HT-29 > 10 µM | CCRF-CEM > 10 µM | SF-295 > 10 µM | SK-OV-3 > 10 µM | CAKI-1 > 10 µM | M14 > 10 µM | LOX IMVI > 10 µM | HCC 2998 > 10 µM | ACHN > 10 µM | UO-31 > 10 µM | MCF7 > 10 µM | HOP-92 > 10 µM | PC-3 > 10 µM | OVCAR-5 > 10 µM | RPMI-8226 > 10 µM | T47D > 10 µM | SK-MEL-2 > 10 µM | NCI-H460 > 10 µM | SK-MEL-5 > 10 µM

CNC(=O)C(C)NC(=O)C(Cc1ccccc1)NC(=O)c1ccccc1 (stereo not given)
inactive: HT-29 > 100 µM | CCRF-CEM > 100 µM | SF-295 > 100 µM | SK-OV-3 > 100 µM | CAKI-1 > 100 µM | M14 > 100 µM | LOX IMVI > 100 µM | HCC 2998 > 100 µM | ACHN > 100 µM | UO-31 > 100 µM | MCF7 > 100 µM | HOP-92 > 100 µM | PC-3 > 100 µM | OVCAR-5 > 100 µM | RPMI-8226 > 100 µM | T47D > 100 µM | SK-MEL-2 > 100 µM | NCI-H460 > 100 µM | SK-MEL-5 > 100 µM

CC(C)(C)C(=O)C(Cc1ccccc1)C(=O)C(C)(C)C
inactive: HT-29 39.4 µM | CCRF-CEM 39.6 µM | SF-295 > 100 µM | SK-OV-3 23.2 µM | CAKI-1 > 100 µM | M14 > 100 µM | LOX IMVI > 100 µM | HCC 2998 > 100 µM | ACHN > 100 µM | UO-31 81.7 µM | MCF7 > 100 µM | HOP-92 29.6 µM | PC-3 46.7 µM | OVCAR-5 > 100 µM | RPMI-8226 37.4 µM | T47D 25.5 µM | SK-MEL-2 > 100 µM | NCI-H460 > 100 µM | SK-MEL-5 > 100 µM

O=C1CCc2c(sc3ncnc(Nc4cccc(Br)c4)c23)C1
inactive: HT-29 12.1 µM | CCRF-CEM 2.08 µM | SF-295 3.88 µM | SK-OV-3 7.52 µM | CAKI-1 2.09 µM | M14 3.42 µM | LOX IMVI 3.49 µM | HCC 2998 4.26 µM | ACHN 1.69 µM | UO-31 1.99 µM | MCF7 3.93 µM | HOP-92 2.54 µM | PC-3 3.07 µM | OVCAR-5 6.98 µM | RPMI-8226 2.58 µM | T47D 2.4 µM | SK-MEL-2 6.89 µM | NCI-H460 3.99 µM | SK-MEL-5 1.88 µM

Cn1ncc2c(Cl)ncnc21
inactive: HT-29 > 100 µM | SF-295 > 100 µM | SK-OV-3 > 100 µM | CAKI-1 > 100 µM | M14 > 100 µM | LOX IMVI > 100 µM | HCC 2998 > 100 µM | ACHN > 100 µM | UO-31 > 100 µM | MCF7 > 100 µM | HOP-92 > 100 µM | PC-3 > 100 µM | OVCAR-5 > 100 µM | RPMI-8226 > 100 µM | T47D > 100 µM | SK-MEL-2 > 100 µM | NCI-H460 > 100 µM | SK-MEL-5 > 100 µM

COc1ccc2oc(C(=O)N3CC(CCl)c4ccc(N)cc43)cc2c1 (stereo not given)
active: HT-29 0.357 µM | CCRF-CEM 0.36 µM | SF-295 0.344 µM | CAKI-1 0.185 µM | M14 0.805 µM | LOX IMVI 0.356 µM | HCC 2998 0.489 µM | ACHN 0.147 µM | UO-31 0.194 µM | MCF7 0.465 µM | HOP-92 0.358 µM | PC-3 0.296 µM | OVCAR-5 0.53 µM | RPMI-8226 0.226 µM | T47D 0.31 µM | SK-MEL-2 0.238 µM | NCI-H460 0.203 µM | SK-MEL-5 0.176 µM
inactive: SK-OV-3 1.35 µM

Cc1c(C(=O)O)sc2nc[nH]c(=O)c12
inactive: HT-29 > 100 µM | SF-295 > 100 µM | SK-OV-3 > 100 µM | CAKI-1 50.2 µM | M14 > 100 µM | LOX IMVI > 100 µM | HCC 2998 > 100 µM | ACHN > 100 µM | UO-31 > 100 µM | MCF7 > 100 µM | HOP-92 67.1 µM | PC-3 > 100 µM | OVCAR-5 > 100 µM | RPMI-8226 > 100 µM | T47D > 100 µM | SK-MEL-2 > 100 µM | NCI-H460 > 100 µM | SK-MEL-5 > 100 µM

Cc1[nH]c2ncn(Nc3ccccc3)c(=N)c2c1Cc1ccccc1
inactive: HT-29 2.6 µM | CCRF-CEM 37.3 µM | SK-OV-3 > 100 µM | CAKI-1 24.4 µM | LOX IMVI 10.7 µM | HCC 2998 > 100 µM | ACHN 4.22 µM | UO-31 > 100 µM | MCF7 5.45 µM | HOP-92 33.1 µM | PC-3 23.4 µM | OVCAR-5 11.2 µM | RPMI-8226 > 60.7 µM | NCI-H460 14.3 µM
active: M14 0.162 µM | T47D 1.07 µM | SK-MEL-2 0.142 µM | SK-MEL-5 0.386 µM

COc1ccc(/C=C2\CSC/C(=C\c3ccc(OC)c(OC)c3OC)C2=O)c(OC)c1OC
inactive: HT-29 28.8 µM | CCRF-CEM 12.9 µM | SF-295 25.4 µM | SK-OV-3 > 100 µM | M14 18.5 µM | LOX IMVI 23.4 µM | HCC 2998 > 10 µM | ACHN 16.9 µM | UO-31 > 100 µM | MCF7 65 µM | HOP-92 35.6 µM | PC-3 47.3 µM | OVCAR-5 > 100 µM | RPMI-8226 16.4 µM | T47D > 100 µM | SK-MEL-2 54.6 µM | NCI-H460 34.5 µM | SK-MEL-5 28.3 µM

Cc1nc(SCC(=O)Nc2ccc(Cl)cc2)c2sc(=S)n(-c3ccccc3)c2n1
inactive: HT-29 > 10 µM | CCRF-CEM > 10 µM | SF-295 > 10 µM | SK-OV-3 > 10 µM | CAKI-1 > 10 µM | M14 > 10 µM | LOX IMVI > 10 µM | HCC 2998 > 10 µM | ACHN > 10 µM | MCF7 > 10 µM | HOP-92 5.15 µM | PC-3 > 10 µM | OVCAR-5 > 10 µM | RPMI-8226 > 10 µM | T47D > 10 µM | SK-MEL-2 > 10 µM | NCI-H460 > 10 µM | SK-MEL-5 > 10 µM

COc1ccc(-c2nc(SCC(=O)N/N=C/c3ccc(N(C)C)cc3)[nH]c2-c2ccc(OC)cc2)cc1
inactive: HT-29 34.6 µM | CCRF-CEM 8.57 µM | SF-295 37 µM | SK-OV-3 > 100 µM | CAKI-1 > 100 µM | M14 35.2 µM | LOX IMVI 92.9 µM | HCC 2998 75.9 µM | ACHN 51.9 µM | UO-31 82.8 µM | MCF7 13.5 µM | HOP-92 > 100 µM | PC-3 44.8 µM | OVCAR-5 99.5 µM | T47D 10.6 µM | SK-MEL-2 86.1 µM | NCI-H460 32.7 µM | SK-MEL-5 26.8 µM

c1ccc(C/C(=N\Nc2nc3ccccc3[nH]2)c2ccccn2)cc1
inactive: SF-295 1.92 µM | HCC 2998 13.1 µM | SK-MEL-2 2.89 µM
active: HT-29 < 0.01 µM | CCRF-CEM < 0.01 µM | SK-OV-3 0.033 µM | CAKI-1 0.056 µM | M14 < 0.0288 µM | LOX IMVI 0.119 µM | ACHN 0.0131 µM | UO-31 0.0261 µM | MCF7 < 0.01 µM | HOP-92 0.0206 µM | PC-3 < 0.01 µM | RPMI-8226 < 0.01 µM | T47D < 0.01 µM | NCI-H460 0.126 µM | SK-MEL-5 0.0408 µM

COC(=O)c1ccccc1C1CN=NC12Cc1cc(C)cc(C)c1C2=O (stereo not given)
inactive: HT-29 23.4 µM | CCRF-CEM 33.4 µM | SF-295 48.6 µM | SK-OV-3 > 100 µM | CAKI-1 36.8 µM | M14 67.8 µM | LOX IMVI 20 µM | HCC 2998 46.9 µM | ACHN 88.7 µM | UO-31 43 µM | MCF7 27.5 µM | HOP-92 26.9 µM | PC-3 37.5 µM | OVCAR-5 > 100 µM | T47D 44.7 µM | SK-MEL-2 > 100 µM | NCI-H460 45.5 µM | SK-MEL-5 31.3 µM
